Assay results: ChEMBL document CHEMBL4311936, “Synthesis and structure-activity relationship studies of IgG-binding peptides focused on the C-terminal histidine residue” (Medchemcomm, 2019)
Bridge positions count the residues as written; N and C are the ends. Square brackets hold non-standard residues; d marks the D form. Peptide text beside a SMILES is read from it. * marks the point of attachment. ξ: configuration not given here. NH(4-OH-benzyl) = Oc1ccc(CN*)cc1; ξ2Pal = NC(Cc1ccccn1)C(=O)O; ξ3Pal = NC(Cc1cccnc1)C(=O)O; ξ4Pal = NC(Cc1ccncc1)C(=O)O; ξ2Thi = NC(Cc1cccs1)C(=O)O; ξCha = NC(CC1CCCCC1)C(=O)O; ξOrn = NCCCC(N)C(=O)O; ξDab = NCCC(N)C(=O)O

Assays:
Homo sapiens [1] = species: Homo sapiens; assay: Binding affinity to human IgG assessed as dissociation rate constant by SPR analysis
Homo sapiens [2] = species: Homo sapiens; assay: Binding affinity to human IgG assessed as association rate constant by SPR analysis
[3] = Binding affinity to human IgG assessed as dissociation constant by SPR analysis

| SMILES | Kdiss (Homo sapiens [1]) [s⁻¹] | Ka (Homo sapiens [2]) [M⁻¹ s⁻¹] | Kd [3] [nM] |
| --- | --- | --- | --- |
| CC(=O)N[C@@H](CC(=O)O)C(=O)N[C@H]1CSSC[C@@H](C(=O)N[C@H](C(=O)N[C@@H](Cc2ccccc2)C(=O)NC(CCCN)C(N)=O)[C@@H](C)O)NC(=O)[C@H](Cc2c[nH]c3ccccc23)NC(=O)[C@H](C(C)C)NC(=O)[C@H](CC(C)C)NC(=O)[C@H](CCC(=O)O)NC(=O)CNC(=O)[C@H](CCCCN)NC(=O)[C@H](Cc2cnc[nH]2)NC(=O)[C@H](Cc2ccc(O)cc2)NC(=O)[C@H](C)NC1=O (some centres not stated) (Ac-DCAYHKGELVWCTF[ξOrn]-NH2; disulfide 2-12) |  |  | 710 |
| CC(=O)N[C@@H](CC(=O)O)C(=O)N[C@H]1CSSC[C@@H](C(=O)N[C@H](C(=O)N[C@@H](Cc2ccccc2)C(=O)N[C@@H](C)C(N)=O)[C@@H](C)O)NC(=O)[C@H](Cc2c[nH]c3ccccc23)NC(=O)[C@H](C(C)C)NC(=O)[C@H](CC(C)C)NC(=O)[C@H](CCC(=O)O)NC(=O)CNC(=O)[C@H](CCCCN)NC(=O)[C@H](Cc2cnc[nH]2)NC(=O)[C@H](Cc2ccc(O)cc2)NC(=O)[C@H](C)NC1=O (Ac-DCAYHKGELVWCTFA-NH2; disulfide 2-12) | 0.477 | 567000 | 841 |
| CC(=O)N[C@@H](CC(=O)O)C(=O)N[C@H]1CSSC[C@@H](C(=O)N[C@H](C(=O)N[C@@H](Cc2ccccc2)C(=O)N[C@H](Cc2ccccn2)C(N)=O)[C@@H](C)O)NC(=O)[C@H](Cc2c[nH]c3ccccc23)NC(=O)[C@H](C(C)C)NC(=O)[C@H](CC(C)C)NC(=O)[C@H](CCC(=O)O)NC(=O)CNC(=O)[C@H](CCCCN)NC(=O)[C@H](Cc2cnc[nH]2)NC(=O)[C@H](Cc2ccc(O)cc2)NC(=O)[C@H](C)NC1=O | 0.344 | 593000 | 579 |
| CC(=O)N[C@@H](CC(=O)O)C(=O)N[C@H]1CSSC[C@@H](C(=O)N[C@H](C(=O)N[C@@H](Cc2ccccc2)C(=O)N[C@H](Cc2ccccn2)C(N)=O)[C@@H](C)O)NC(=O)[C@H](Cc2c[nH]c3ccccc23)NC(=O)[C@H](C(C)C)NC(=O)[C@H](CC(C)C)NC(=O)[C@H](CCC(=O)O)NC(=O)CNC(=O)[C@H](CC(C)C)NC(=O)[C@H](Cc2cnc[nH]2)NC(=O)[C@H](Cc2ccc(O)cc2)NC(=O)[C@H](C)NC1=O | 0.0304 | 1.32e+06 | 23 |
| CC(=O)N[C@@H](CC(=O)O)C(=O)N[C@H]1CSSC[C@@H](C(=O)N[C@H](C(=O)N[C@@H](Cc2ccccc2)C(=O)NC(CCN)C(N)=O)[C@@H](C)O)NC(=O)[C@H](Cc2c[nH]c3ccccc23)NC(=O)[C@H](C(C)C)NC(=O)[C@H](CC(C)C)NC(=O)[C@H](CCC(=O)O)NC(=O)CNC(=O)[C@H](CCCCN)NC(=O)[C@H](Cc2cnc[nH]2)NC(=O)[C@H](Cc2ccc(O)cc2)NC(=O)[C@H](C)NC1=O (some centres not stated) (Ac-DCAYHKGELVWCTF[ξDab]-NH2; disulfide 2-12) | 0.749 | 731000 | 1020 |
| CC(=O)N[C@@H](CC(=O)O)C(=O)N[C@H]1CSSC[C@@H](C(=O)N[C@H](C(=O)N[C@@H](Cc2ccccc2)C(=O)NC(CC2CCCCC2)C(N)=O)[C@@H](C)O)NC(=O)[C@H](Cc2c[nH]c3ccccc23)NC(=O)[C@H](C(C)C)NC(=O)[C@H](CC(C)C)NC(=O)[C@H](CCC(=O)O)NC(=O)CNC(=O)[C@H](CCCCN)NC(=O)[C@H](Cc2cnc[nH]2)NC(=O)[C@H](Cc2ccc(O)cc2)NC(=O)[C@H](C)NC1=O (some centres not stated) (Ac-DCAYHKGELVWCTF[ξCha]-NH2; disulfide 2-12) | 0.128 | 776000 | 165 |
| CC(=O)N[C@@H](CC(=O)O)C(=O)N[C@H]1CSSC[C@@H](C(=O)N[C@H](C(=O)N[C@@H](Cc2ccccc2)C(=O)NC(Cc2ccccn2)C(=O)O)[C@@H](C)O)NC(=O)[C@H](Cc2c[nH]c3ccccc23)NC(=O)[C@H](C(C)C)NC(=O)[C@H](CC(C)C)NC(=O)[C@H](CCC(=O)O)NC(=O)CNC(=O)[C@H](CC(C)C)NC(=O)[C@H](Cc2cnc[nH]2)NC(=O)[C@H](Cc2ccc(O)cc2)NC(=O)[C@H](C)NC1=O (some centres not stated) (Ac-DCAYHLGELVWCTF[ξ2Pal]-OH; disulfide 2-12) | 0.0033 | 1.35e+06 | 2.48 |
| CC(=O)N[C@@H](CC(=O)O)C(=O)N[C@H]1CSSC[C@@H](C(=O)N[C@H](C(=O)N[C@@H](Cc2ccccc2)C(=O)NC(Cc2ccccn2)C(=O)O)[C@@H](C)O)NC(=O)[C@H](Cc2c[nH]c3ccccc23)NC(=O)[C@H](C(C)C)NC(=O)[C@H](CC(C)C)NC(=O)[C@H](CCC(=O)O)NC(=O)CNC(=O)[C@H](CCCCN)NC(=O)[C@H](Cc2cnc[nH]2)NC(=O)[C@H](Cc2ccc(O)cc2)NC(=O)[C@H](C)NC1=O (mixture of isomers) | 0.0674 | 690000 | 97.6 |
| CC(=O)N[C@@H](CC(=O)O)C(=O)N[C@H]1CSSC[C@@H](C(=O)N[C@H](C(=O)N[C@@H](Cc2ccccc2)C(=O)NC(Cc2ccccn2)C(N)=O)[C@@H](C)O)NC(=O)[C@H](Cc2c[nH]c3ccccc23)NC(=O)[C@H](C(C)C)NC(=O)[C@H](CC(C)C)NC(=O)[C@H](CCC(=O)O)NC(=O)CNC(=O)[C@H](CC(C)C)NC(=O)[C@H](Cc2cnc[nH]2)NC(=O)[C@H](Cc2ccc(O)cc2)NC(=O)[C@H](C)NC1=O (mixture of isomers) | 0.00326 | 1.49e+06 | 2.19 |
| CC(=O)N[C@@H](CC(=O)O)C(=O)N[C@H]1CSSC[C@@H](C(=O)N[C@H](C(=O)N[C@@H](Cc2ccccc2)C(=O)NC(Cc2cccs2)C(N)=O)[C@@H](C)O)NC(=O)[C@H](Cc2c[nH]c3ccccc23)NC(=O)[C@H](C(C)C)NC(=O)[C@H](CC(C)C)NC(=O)[C@H](CCC(=O)O)NC(=O)CNC(=O)[C@H](CCCCN)NC(=O)[C@H](Cc2cnc[nH]2)NC(=O)[C@H](Cc2ccc(O)cc2)NC(=O)[C@H](C)NC1=O (some centres not stated) (Ac-DCAYHKGELVWCTF[ξ2Thi]-NH2; disulfide 2-12) | 0.169 | 771000 | 220 |
| CC(=O)N[C@@H](CC(=O)O)C(=O)N[C@H]1CSSC[C@@H](C(=O)N[C@H](C(=O)N[C@@H](Cc2ccccc2)C(=O)NC(Cc2ccccn2)C(N)=O)[C@@H](C)O)NC(=O)[C@H](Cc2c[nH]c3ccccc23)NC(=O)[C@H](C(C)C)NC(=O)[C@H](CC(C)C)NC(=O)[C@H](CCC(=O)O)NC(=O)CNC(=O)[C@H](CCCCN)NC(=O)[C@H](Cc2cnc[nH]2)NC(=O)[C@H](Cc2ccc(O)cc2)NC(=O)[C@H](C)NC1=O (mixture of isomers) | 0.0579 | 764000 | 75.7 |

Other lines, results leading:

| Kdiss (Homo sapiens [1]) [s⁻¹] | Ka (Homo sapiens [2]) [M⁻¹ s⁻¹] | Kd [3] [nM] | SMILES |
| --- | --- | --- | --- |
| 0.425 | 772000 | 550 | CC(=O)N[C@@H](CC(=O)O)C(=O)N[C@H]1CSSC[C@@H](C(=O)N[C@H](C(=O)N[C@@H](Cc2ccccc2)C(=O)NC(Cc2cccnc2)C(N)=O)[C@@H](C)O)NC(=O)[C@H](Cc2c[nH]c3ccccc23)NC(=O)[C@H](C(C)C)NC(=O)[C@H](CC(C)C)NC(=O)[C@H](CCC(=O)O)NC(=O)CNC(=O)[C@H](CCCCN)NC(=O)[C@H](Cc2cnc[nH]2)NC(=O)[C@H](Cc2ccc(O)cc2)NC(=O)[C@H](C)NC1=O (some centres not stated) (Ac-DCAYHKGELVWCTF[ξ3Pal]-NH2; disulfide 2-12) |
|  |  | 1220 | CC(=O)N[C@@H](CC(=O)O)C(=O)N[C@H]1CSSC[C@@H](C(=O)N[C@H](C(=O)N[C@@H](Cc2ccccc2)C(=O)N[C@@H](Cc2c[nH]c3ccccc23)C(N)=O)[C@@H](C)O)NC(=O)[C@H](Cc2c[nH]c3ccccc23)NC(=O)[C@H](C(C)C)NC(=O)[C@H](CC(C)C)NC(=O)[C@H](CCC(=O)O)NC(=O)CNC(=O)[C@H](CCCCN)NC(=O)[C@H](Cc2cnc[nH]2)NC(=O)[C@H](Cc2ccc(O)cc2)NC(=O)[C@H](C)NC1=O (Ac-DCAYHKGELVWCTFW-NH2; disulfide 2-12) |
| 0.208 | 615000 | 338 | CC(=O)N[C@@H](CC(=O)O)C(=O)N[C@H]1CSSC[C@@H](C(=O)N[C@H](C(=O)N[C@@H](Cc2ccccc2)C(=O)N[C@@H](Cc2cnc[nH]2)C(=O)NCC(N)=O)[C@@H](C)O)NC(=O)[C@H](Cc2c[nH]c3ccccc23)NC(=O)[C@H](C(C)C)NC(=O)[C@H](CC(C)C)NC(=O)[C@H](CCC(=O)O)NC(=O)CNC(=O)[C@H](CCCCN)NC(=O)[C@H](Cc2cnc[nH]2)NC(=O)[C@H](Cc2ccc(O)cc2)NC(=O)[C@H](C)NC1=O (Ac-DCAYHKGELVWCTFHG-NH2; disulfide 2-12) |
| 0.361 | 713000 | 506 | CC(=O)N[C@@H](CC(=O)O)C(=O)N[C@H]1CSSC[C@@H](C(=O)N[C@H](C(=O)N[C@@H](Cc2ccccc2)C(=O)N[C@@H](Cc2ccccc2)C(N)=O)[C@@H](C)O)NC(=O)[C@H](Cc2c[nH]c3ccccc23)NC(=O)[C@H](C(C)C)NC(=O)[C@H](CC(C)C)NC(=O)[C@H](CCC(=O)O)NC(=O)CNC(=O)[C@H](CCCCN)NC(=O)[C@H](Cc2cnc[nH]2)NC(=O)[C@H](Cc2ccc(O)cc2)NC(=O)[C@H](C)NC1=O (Ac-DCAYHKGELVWCTFF-NH2; disulfide 2-12) |
| 0.122 | 603000 | 203 | CC(=O)N[C@@H](CC(=O)O)C(=O)N[C@H]1CSSC[C@@H](C(=O)N[C@H](C(=O)N[C@@H](Cc2ccccc2)C(=O)N[C@@H](Cc2cnc[nH]2)C(=O)NCc2ccc(O)cc2)[C@@H](C)O)NC(=O)[C@H](Cc2c[nH]c3ccccc23)NC(=O)[C@H](C(C)C)NC(=O)[C@H](CC(C)C)NC(=O)[C@H](CCC(=O)O)NC(=O)CNC(=O)[C@H](CCCCN)NC(=O)[C@H](Cc2cnc[nH]2)NC(=O)[C@H](Cc2ccc(O)cc2)NC(=O)[C@H](C)NC1=O (Ac-DCAYHKGELVWCTFH-{NH(4-OH-benzyl)}; disulfide 2-12) |
| 0.389 | 730000 | 533 | CC(=O)N[C@@H](CC(=O)O)C(=O)N[C@H]1CSSC[C@@H](C(=O)N[C@H](C(=O)N[C@@H](Cc2ccccc2)C(=O)NC(Cc2ccncc2)C(N)=O)[C@@H](C)O)NC(=O)[C@H](Cc2c[nH]c3ccccc23)NC(=O)[C@H](C(C)C)NC(=O)[C@H](CC(C)C)NC(=O)[C@H](CCC(=O)O)NC(=O)CNC(=O)[C@H](CCCCN)NC(=O)[C@H](Cc2cnc[nH]2)NC(=O)[C@H](Cc2ccc(O)cc2)NC(=O)[C@H](C)NC1=O (some centres not stated) (Ac-DCAYHKGELVWCTF[ξ4Pal]-NH2; disulfide 2-12) |
